Assay results from patent US20080009418A1, “Selective Inhibitors” (Alchemia LTD., priority 2004, published 2008).

Tests used:
[1] = biological target: T1, Human δ-opioid (DOP) (Homo sapiens, UniProt P41143); experiment: Radioligand binding, human δ-opioid (DOP) membranes, FlashPlate, [3H]-Bremazocine; conditions: compound at 10 μM, [3H]-Bremazocine
T1 construct: purchased Perkin Elmer Biosignal
Method in brief: (§1)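 Cloned human receptor membranes were coated onto FlashPlate wells and incubated with radioligand and compound (added from a 0.5 mM DMSO daughter plate) for 1 hour at room temperature in the dark. Scintillation counting gave percent inhibition, with DMSO defining total and reference ligand defining non-specific binding.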

[2] = biological target: T2, Human κ-Opioid (KOP) (Homo sapiens, UniProt P41145); experiment: Radioligand binding, human κ-opioid (KOP) membranes, filtration, [3H]-Diprenorphine; conditions: compound at 10 μM, [3H]-Diprenorphine
T2 construct: purchased Perkin Elmer Biosignal
T2 sequence (P41145 whole entry): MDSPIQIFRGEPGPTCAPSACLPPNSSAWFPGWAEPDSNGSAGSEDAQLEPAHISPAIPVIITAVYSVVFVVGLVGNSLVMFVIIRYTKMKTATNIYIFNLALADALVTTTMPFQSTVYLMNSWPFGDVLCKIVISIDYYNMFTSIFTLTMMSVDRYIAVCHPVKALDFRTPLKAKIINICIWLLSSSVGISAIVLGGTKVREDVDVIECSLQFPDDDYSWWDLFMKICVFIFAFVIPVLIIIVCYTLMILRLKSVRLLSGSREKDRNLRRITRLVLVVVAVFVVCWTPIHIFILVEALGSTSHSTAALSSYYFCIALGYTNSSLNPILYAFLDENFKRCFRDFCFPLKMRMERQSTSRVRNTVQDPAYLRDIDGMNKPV
Method in brief: (§2)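 Percent inhibition of radioligand binding measured on recombinant human membranes: NK1 with [125I]-Substance P, KOP with [3H]-Diprenorphine. Incubation 1 h at room temperature, then harvest onto 0.3% PEI-soaked filters, cold Tris-HCl pH 7.4 washes and scintillation counting; non-specific binding from reference ligand wells.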

[3] = biological target: T3, Human Melanocortin (MC3) (Homo sapiens, UniProt P41968); experiment: Radioligand binding, human melanocortin MC3 membranes, FlashPlate, [125I]-NDP-αMSH; conditions: compound at 10 μM, [125I]-NDP-αMSH
T3 construct: purchased Perkin Elmer Biosignal
T3 sequence (P41968 whole entry): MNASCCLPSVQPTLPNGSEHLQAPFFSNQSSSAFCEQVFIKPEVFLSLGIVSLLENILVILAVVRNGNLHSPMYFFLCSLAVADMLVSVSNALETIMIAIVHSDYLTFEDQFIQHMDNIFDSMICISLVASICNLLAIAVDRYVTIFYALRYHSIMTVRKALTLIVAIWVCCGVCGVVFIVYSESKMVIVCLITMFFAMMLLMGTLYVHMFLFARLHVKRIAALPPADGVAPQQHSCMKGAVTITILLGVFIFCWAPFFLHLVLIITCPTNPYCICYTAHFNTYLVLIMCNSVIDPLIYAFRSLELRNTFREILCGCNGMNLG
Method in brief: as §1

[4] = biological target: T4, Human Melanocortin (MC4) (Homo sapiens, UniProt P32245); experiment: Radioligand binding, human melanocortin MC4 membranes, FlashPlate, [125I]-NDP-αMSH; conditions: compound at 10 μM, [125I]-NDP-αMSH
T4 construct: purchased Perkin Elmer Biosignal
T4 sequence (P32245 whole entry): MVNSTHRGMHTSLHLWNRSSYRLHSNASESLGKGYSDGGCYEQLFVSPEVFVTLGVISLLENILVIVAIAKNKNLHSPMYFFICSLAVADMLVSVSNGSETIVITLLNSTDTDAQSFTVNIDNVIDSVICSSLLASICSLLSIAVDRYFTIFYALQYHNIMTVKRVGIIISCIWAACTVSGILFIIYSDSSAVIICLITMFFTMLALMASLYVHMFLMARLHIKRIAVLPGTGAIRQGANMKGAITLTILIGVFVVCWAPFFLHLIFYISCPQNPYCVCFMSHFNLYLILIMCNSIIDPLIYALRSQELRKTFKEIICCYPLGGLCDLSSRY
Method in brief: as §1

[5] = biological target: T5, Human melanocortin (MC5) (Homo sapiens, UniProt P33032); experiment: Radioligand binding, human melanocortin MC5 membranes, FlashPlate, [125I]-NDP-αMSH; conditions: compound at 10 μM, [125I]-NDP-αMSH
T5 construct: purchased Perkin Elmer Biosignal
T5 sequence (P33032 whole entry): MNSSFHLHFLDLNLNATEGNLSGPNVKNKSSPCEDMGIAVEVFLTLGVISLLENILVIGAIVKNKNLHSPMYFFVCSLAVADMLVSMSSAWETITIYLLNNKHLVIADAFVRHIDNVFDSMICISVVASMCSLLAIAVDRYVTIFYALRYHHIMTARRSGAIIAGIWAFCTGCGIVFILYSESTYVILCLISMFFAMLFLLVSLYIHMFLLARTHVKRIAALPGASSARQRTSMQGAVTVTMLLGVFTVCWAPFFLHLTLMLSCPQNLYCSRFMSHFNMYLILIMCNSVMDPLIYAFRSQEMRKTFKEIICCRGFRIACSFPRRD
Method in brief: as §1

[6] = biological target: T6, Human melanin-concentrating hormone (MCH1) (Homo sapiens, UniProt Q99705); experiment: Radioligand binding, human melanin-concentrating hormone MCH1 membranes, FlashPlate, [125I]-S36057; conditions: compound at 10 μM
T6 construct: purchased Perkin Elmer Biosignal
T6 sequence (Q99705 whole entry): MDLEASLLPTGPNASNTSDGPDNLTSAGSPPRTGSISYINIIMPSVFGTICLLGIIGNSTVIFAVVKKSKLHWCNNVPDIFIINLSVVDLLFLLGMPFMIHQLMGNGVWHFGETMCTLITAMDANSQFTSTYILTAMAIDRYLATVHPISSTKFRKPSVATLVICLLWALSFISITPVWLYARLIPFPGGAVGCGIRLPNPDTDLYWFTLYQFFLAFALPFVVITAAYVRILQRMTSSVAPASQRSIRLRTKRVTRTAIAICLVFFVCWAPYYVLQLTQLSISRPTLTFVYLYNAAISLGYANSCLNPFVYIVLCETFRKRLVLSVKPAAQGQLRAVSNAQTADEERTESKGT
Method in brief: as §1

[7] = biological target: T7, Human μ-opioid (MOP) (Homo sapiens, UniProt P35372); experiment: Radioligand binding, human μ-opioid (MOP) membranes, FlashPlate, [3H]-Naloxone; conditions: compound at 10 μM, [3H]-Naloxone
T7 construct: purchased Perkin Elmer Biosignal
T7 sequence (P35372 whole entry): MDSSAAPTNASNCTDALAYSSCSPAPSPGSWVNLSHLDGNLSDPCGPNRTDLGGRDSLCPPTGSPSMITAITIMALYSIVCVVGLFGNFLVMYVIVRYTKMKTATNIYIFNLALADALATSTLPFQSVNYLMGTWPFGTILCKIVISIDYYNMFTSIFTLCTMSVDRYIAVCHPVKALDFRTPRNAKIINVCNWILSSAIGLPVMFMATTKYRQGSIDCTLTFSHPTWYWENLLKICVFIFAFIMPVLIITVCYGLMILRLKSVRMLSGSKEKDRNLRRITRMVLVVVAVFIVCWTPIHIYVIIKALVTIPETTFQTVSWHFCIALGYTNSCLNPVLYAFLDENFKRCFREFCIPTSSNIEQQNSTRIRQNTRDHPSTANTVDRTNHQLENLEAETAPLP
Method in brief: as §1

[8] = biological target: T8, Human neurokinin (NK1) (Homo sapiens, UniProt P25103); experiment: Radioligand binding, human neurokinin NK1 membranes, filtration, [125I]-Substance P; conditions: compound at 10 μM, [125I]-Substance P
T8 construct: purchased Perkin Elmer Biosignal
T8 sequence (P25103 whole entry): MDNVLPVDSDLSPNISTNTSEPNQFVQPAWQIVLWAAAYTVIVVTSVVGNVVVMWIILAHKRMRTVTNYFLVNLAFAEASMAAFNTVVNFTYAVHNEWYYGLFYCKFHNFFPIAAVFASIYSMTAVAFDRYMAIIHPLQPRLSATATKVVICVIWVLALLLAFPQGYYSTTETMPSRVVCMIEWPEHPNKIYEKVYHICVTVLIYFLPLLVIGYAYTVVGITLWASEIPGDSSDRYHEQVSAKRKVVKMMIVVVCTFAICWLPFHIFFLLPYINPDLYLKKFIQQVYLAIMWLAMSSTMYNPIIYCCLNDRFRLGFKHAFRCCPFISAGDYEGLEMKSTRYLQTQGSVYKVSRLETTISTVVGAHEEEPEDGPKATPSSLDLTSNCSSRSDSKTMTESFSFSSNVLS
Method in brief: as §2

[9] = biological target: T9, Human neuropeptide Y (NPY-Y1) (Homo sapiens, UniProt P25929); experiment: Radioligand binding, human neuropeptide Y NPY-Y1 membranes, FlashPlate, [125I]-PYY; conditions: compound at 10 μM, [125I]-PYY
T9 construct: purchased Perkin Elmer Biosignal
T9 sequence (P25929 1-384): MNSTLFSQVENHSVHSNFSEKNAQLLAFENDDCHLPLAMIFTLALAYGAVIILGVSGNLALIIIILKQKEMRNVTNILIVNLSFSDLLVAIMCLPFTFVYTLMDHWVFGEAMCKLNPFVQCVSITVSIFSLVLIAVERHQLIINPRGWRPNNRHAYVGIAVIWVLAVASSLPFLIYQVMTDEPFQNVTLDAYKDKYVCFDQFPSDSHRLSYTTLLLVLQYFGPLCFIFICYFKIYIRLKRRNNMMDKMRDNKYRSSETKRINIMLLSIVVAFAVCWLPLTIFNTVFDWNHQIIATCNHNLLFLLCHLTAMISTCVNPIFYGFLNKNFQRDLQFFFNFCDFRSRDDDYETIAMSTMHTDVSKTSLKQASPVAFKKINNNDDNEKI
Method in brief: as §1

[10] = biological target: T10, Human opioid (ORL1) (Homo sapiens, UniProt P41146); experiment: Radioligand binding, human opioid ORL1 membranes, FlashPlate, [125I]-Nociceptin; conditions: compound at 10 μM, [125I]-Nociceptin
T10 construct: purchased Perkin Elmer Biosignal
T10 sequence (P41146 whole entry): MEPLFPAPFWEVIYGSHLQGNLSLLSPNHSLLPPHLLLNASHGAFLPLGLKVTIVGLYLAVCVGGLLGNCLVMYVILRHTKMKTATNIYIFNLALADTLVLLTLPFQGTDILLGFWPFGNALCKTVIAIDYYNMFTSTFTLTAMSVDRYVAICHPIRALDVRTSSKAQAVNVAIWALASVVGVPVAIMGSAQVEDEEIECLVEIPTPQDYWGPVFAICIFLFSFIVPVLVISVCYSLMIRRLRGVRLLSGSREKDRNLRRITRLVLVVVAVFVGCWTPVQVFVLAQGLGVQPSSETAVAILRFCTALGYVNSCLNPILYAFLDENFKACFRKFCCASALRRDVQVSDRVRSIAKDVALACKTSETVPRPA
Method in brief: as §1

[11] = biological target: T11, Mouse urotensin (mUR2) (Mus musculus, UniProt Q8VIH9); experiment: Radioligand binding, mouse urotensin mUR2 membranes, FlashPlate, [125I]-Urotensin II; conditions: compound at 10 μM, [125I]-Urotensin II
T11 construct: purchased Perkin Elmer Biosignal
T11 sequence (Q8VIH9 1-385): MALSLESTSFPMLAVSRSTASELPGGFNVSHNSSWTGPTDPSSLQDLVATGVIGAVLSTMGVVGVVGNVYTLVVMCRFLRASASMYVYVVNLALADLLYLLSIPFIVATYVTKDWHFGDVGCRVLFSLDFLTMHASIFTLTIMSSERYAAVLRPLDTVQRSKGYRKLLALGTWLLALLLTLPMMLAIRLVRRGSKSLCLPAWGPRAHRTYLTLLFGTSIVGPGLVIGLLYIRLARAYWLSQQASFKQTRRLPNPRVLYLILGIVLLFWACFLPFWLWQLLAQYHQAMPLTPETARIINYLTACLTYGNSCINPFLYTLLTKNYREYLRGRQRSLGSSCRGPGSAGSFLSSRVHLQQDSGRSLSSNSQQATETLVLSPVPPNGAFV
Method in brief: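 Cloned mouse urotensin (mUR2) receptor membranes from Perkin Elmer Biosignal were immobilized in FlashPlate microplates using a proprietary coating. Each well got 19.5 μl buffer, then 0.5 μl of DMSO, reference ligand, or compound. Adding 5 μl of [125I]-Urotensin II, diluted to 5× final concentration in binding buffer, started binding. Plates were sealed with TopSeal-A and incubated 1 hour at room temperature in the dark. Wells were counted for 30 seconds each on a TopCount after a 60-second delay, and percentage inhibition was calculated.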

[12] = [125I]-S36057, human MCH1 membranes, 10 µM

T1 sequence (P41143 whole entry): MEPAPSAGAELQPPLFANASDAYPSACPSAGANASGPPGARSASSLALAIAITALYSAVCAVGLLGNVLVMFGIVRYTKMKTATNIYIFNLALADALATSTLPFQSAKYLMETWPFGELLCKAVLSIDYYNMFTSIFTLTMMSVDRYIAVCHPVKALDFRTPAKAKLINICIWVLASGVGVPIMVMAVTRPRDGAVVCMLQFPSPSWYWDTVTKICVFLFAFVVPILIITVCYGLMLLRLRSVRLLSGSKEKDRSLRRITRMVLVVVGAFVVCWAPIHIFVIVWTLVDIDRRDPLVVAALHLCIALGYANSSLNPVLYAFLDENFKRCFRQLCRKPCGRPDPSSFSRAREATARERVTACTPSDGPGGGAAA

## N=C(N)NCCC(=O)N[C@H]1C(OCc2ccc(Cl)cc2)O[C@H](COCc2ccccc2)[C@@H](O)[C@@H]1OCc1ccc(Cl)cc1 (stereo partly shown) [compound 524]
[1]
  A1: inhibition of radioligand binding, human δ-opioid (DOP): − (“−” indicates less than 50% inhibition at 10 μM)
[2]; 10 µM
  A2: inhibition of radioligand binding, human κ-opioid (KOP): − (“−” indicates less than 50% inhibition at 10 μM)
[3]; 10 µM
  A3: inhibition of radioligand binding, human melanocortin (MC3): − (“−” indicates less than 50% inhibition at 10 μM)
[4]; 10 µM
  A4: inhibition of radioligand binding, human melanocortin (MC4): − (“−” indicates less than 50% inhibition at 10 μM)
[5]
  A5: inhibition of radioligand binding, human melanocortin (MC5): + (“+” indicates greater than 50% inhibition at 10 μM)
[6]; [125I]-S36057
  A6: inhibition of radioligand binding, human melanin-concentrating hormone (MCH1): + (“+” indicates greater than 50% inhibition at 10 μM)
[7]
  A7: inhibition of radioligand binding, human μ-opioid (MOP): − (“−” indicates less than 50% inhibition at 10 μM)
[8]
  A8: inhibition of radioligand binding, human neurokinin (NK1): + (“+” indicates greater than 50% inhibition at 10 μM)
[9]
  A9: inhibition of radioligand binding, human neuropeptide Y (NPY-Y1): − (“−” indicates less than 50% inhibition at 10 μM)
[10]
  A10: inhibition of radioligand binding, human opioid (ORL1): − (“−” indicates less than 50% inhibition at 10 μM)
[11]
  A11: inhibition of radioligand binding, mouse urotensin (mUR2): − (“−” indicates less than 50% inhibition at 10 μM)

## NCCCC(=O)NC1C(OCc2ccc3ccccc3c2)OC(COCc2ccc(Cl)cc2)C(O)C1OCc1ccc2ccccc2c1 (single isomer, unassigned) [compound 463]
[1]; human DOP membranes
  A1: inhibition of radioligand binding: − (“−” indicates less than 50% inhibition at 10 μM)
[2]; human KOP membranes, 10 µM
  A2: inhibition of radioligand binding: + (“+” indicates greater than 50% inhibition at 10 μM)
[3]; human MC3 membranes
  A3: inhibition of radioligand binding: + (“+” indicates greater than 50% inhibition at 10 μM)
[4]; human MC4 membranes
  A4: inhibition of radioligand binding: + (“+” indicates greater than 50% inhibition at 10 μM)
[5]; human MC5 membranes
  A5: inhibition of radioligand binding: + (“+” indicates greater than 50% inhibition at 10 μM)
[6]; [12]
  A6: inhibition of radioligand binding: + (“+” indicates greater than 50% inhibition at 10 μM)
[7]; human MOP membranes
  A7: inhibition of radioligand binding: − (“−” indicates less than 50% inhibition at 10 μM)
[8]; human NK1 membranes
  A8: inhibition of radioligand binding: + (“+” indicates greater than 50% inhibition at 10 μM)
[9]; human NPY-Y1 membranes
  A9: inhibition of radioligand binding: − (“−” indicates less than 50% inhibition at 10 μM)
[10]; human ORL1 membranes, 10 µM
  A10: inhibition of radioligand binding: − (“−” indicates less than 50% inhibition at 10 μM)
[11]; mouse mUR2 membranes
  A11: inhibition of radioligand binding: − (“−” indicates less than 50% inhibition at 10 μM)

## NCCCC(=O)NC1C(OCc2ccc3ccccc3c2)OC(COCc2ccccc2)C(O)C1OCc1ccc(Cl)cc1 (stereo not shown) [compound 391]
[1]; human DOP membranes
  A1: inhibition of radioligand binding: − (“−” indicates less than 50% inhibition at 10 μM)
[2]; human KOP membranes
  A2: inhibition of radioligand binding: − (“−” indicates less than 50% inhibition at 10 μM)
[3]; human MC3 membranes
  A3: inhibition of radioligand binding: − (“−” indicates less than 50% inhibition at 10 μM)
[4]; human MC4 membranes, 10 µM
  A4: inhibition of radioligand binding: + (“+” indicates greater than 50% inhibition at 10 μM)
[5]; human MC5 membranes, 10 µM
  A5: inhibition of radioligand binding: − (“−” indicates less than 50% inhibition at 10 μM)
[6]; [12]
  A6: inhibition of radioligand binding: − (“−” indicates less than 50% inhibition at 10 μM)
[7]; human MOP membranes, 10 µM
  A7: inhibition of radioligand binding: − (“−” indicates less than 50% inhibition at 10 μM)
[8]; human NK1 membranes
  A8: inhibition of radioligand binding: + (“+” indicates greater than 50% inhibition at 10 μM)
[9]; human NPY-Y1 membranes
  A9: inhibition of radioligand binding: − (“−” indicates less than 50% inhibition at 10 μM)
[10]; human ORL1 membranes, 10 µM
  A10: inhibition of radioligand binding: − (“−” indicates less than 50% inhibition at 10 μM)
[11]; mouse mUR2 membranes
  A11: inhibition of radioligand binding: − (“−” indicates less than 50% inhibition at 10 μM)

## CSC1OC(COCc2ccc(-c3ccccc3)cc2)C(O)C(OCc2ccccc2)C1NC(=O)CCNC(=N)N (stereo not shown) [compound 257]
[1]; FlashPlate
  A1: inhibition of radioligand binding: − (“−” indicates less than 50% inhibition at 10 μM)
[2]; filtration
  A2: inhibition of radioligand binding: − (“−” indicates less than 50% inhibition at 10 μM)
[3]; FlashPlate
  A3: inhibition of radioligand binding: − (“−” indicates less than 50% inhibition at 10 μM)
[4]; FlashPlate
  A4: inhibition of radioligand binding: + (“+” indicates greater than 50% inhibition at 10 μM)
[5]; FlashPlate
  A5: inhibition of radioligand binding: − (“−” indicates less than 50% inhibition at 10 μM)
[6]; [125I]-S36057, FlashPlate
  A6: inhibition of radioligand binding: − (“−” indicates less than 50% inhibition at 10 μM)
[7]; FlashPlate
  A7: inhibition of radioligand binding: − (“−” indicates less than 50% inhibition at 10 μM)
[8]; filtration
  A8: inhibition of radioligand binding: + (“+” indicates greater than 50% inhibition at 10 μM)
[9]; FlashPlate
  A9: inhibition of radioligand binding: − (“−” indicates less than 50% inhibition at 10 μM)
[10]; FlashPlate
  A10: inhibition of radioligand binding: − (“−” indicates less than 50% inhibition at 10 μM)
[11]; FlashPlate
  A11: inhibition of radioligand binding: − (“−” indicates less than 50% inhibition at 10 μM)

## NCCC(=O)N[C@H]1C(OCc2ccc3ccccc3c2)O[C@H](COCc2ccc(Cl)cc2)[C@@H](O)[C@@H]1OCc1ccc(Cl)cc1 (stereo partly shown) [compound 441]
[1]; human DOP membranes
  A1: inhibition of radioligand binding: − (“−” indicates less than 50% inhibition at 10 μM)
[2]; human KOP membranes
  A2: inhibition of radioligand binding: − (“−” indicates less than 50% inhibition at 10 μM)
[3]; human MC3 membranes, 10 µM
  A3: inhibition of radioligand binding: + (“+” indicates greater than 50% inhibition at 10 μM)
[4]; human MC4 membranes, 10 µM
  A4: inhibition of radioligand binding: + (“+” indicates greater than 50% inhibition at 10 μM)
[5]; human MC5 membranes
  A5: inhibition of radioligand binding: + (“+” indicates greater than 50% inhibition at 10 μM)
[6]; [125I]-S36057, human MCH1 membranes
  A6: inhibition of radioligand binding: + (“+” indicates greater than 50% inhibition at 10 μM)
[7]; human MOP membranes
  A7: inhibition of radioligand binding: − (“−” indicates less than 50% inhibition at 10 μM)
[8]; human NK1 membranes
  A8: inhibition of radioligand binding: + (“+” indicates greater than 50% inhibition at 10 μM)
[9]; human NPY-Y1 membranes
  A9: inhibition of radioligand binding: − (“−” indicates less than 50% inhibition at 10 μM)
[10]; human ORL1 membranes
  A10: inhibition of radioligand binding: − (“−” indicates less than 50% inhibition at 10 μM)
[11]; mouse mUR2 membranes
  A11: inhibition of radioligand binding: − (“−” indicates less than 50% inhibition at 10 μM)
